Tests used:
macrophage = assay: Activation of macrophage by cyanine dye (adherent ascites cells of treated mice cultured with Meth A ascitic tumor cells, 3H-thymidine incorporation); type: cell-based, BALB/c mice; settings: 50 ng/0.2 ml/animal intraperitoneal to mice, cells collected two days later
Procedure: Two days after the administration, the ascites of the mice were extracted, and the cells which adhered onto plastic Petri dish were collected.
Control group was intraperitoneally administered with 0.2 ml saline.
Thereafter, the incorporation of ^3 H-thymidine in the tumor cell was determined by conventional method, and the growth inhibitory rate for tumor (%) was calculated with the following equation.

Acute toxicity (LD50) = type: in vivo; settings: mouse, in vivo, 7 days
Procedure: (§1) Either of Compounds No.1-8 in Table I was dissolved or suspended in saline containing 5% gum arabic, and a group of ddy mice, about 10-20 g each, received an intraperitoneal or oral administration of the resultant mixture occasionally through a stomach tube, followed by monitoring and counting dead mice for an additional 7 days to determine respective LD50 value in accordance with the Van der Waerden's method.

[1] = test system: Meth A ascitic tumor cell; assay: Antitumor effect on tumor-bearing mouse (life-span increasing effect, Meth A ascitic tumor); type: in vivo, BALB/c mice; settings: for Mean survival days: i.p. twice a week over 40 days, * significant to control at 5% or lower; for Increase in life-span (T/C %) / Survivals after 40 days: i.p.; for Increase in life-span (T/C %): control = 100; for Survivals after 40 days: group of seven mice
Procedure: Compounds No.1, 7 and 8 in Table I were evaluated for their antitumor activity using as the criterion the life-span increasing effect on tumor-bearing mice which had received the transplantation of Meth A ascitic tumor cell.
More particularly, 8 week-old male BALB/c mice were intraperitoneally transplanted with 1×10^5 cells/mouse of Meth A cell. Ten days after the transplantation, a group of seven mice with a successful transplantation were intraperitoneally administered with either Compound No.1, 7 or 8 in Table I twice a week over a period of 40 days while monitoring the mice.
Control group was intraperitoneally administered with 0.2 ml saline in accordance with the same administration schedule.
The rate of increase in life-span (T/C %) under the above conditions was calculated from the mean survival days found for the test group (T) and control group (C). [formula]

MC-1 cell = assay: Antitumor effect by growth inhibition of tumor (MC-1, with or without light-irradiation); type: in vivo, C57BL/6 mice; settings: for Mean wet weight of tumor: 27th day, * significant at 5% or lower; for Rate of survival (%): 35th day
Procedure: Compounds No.1, 7 and 8 in Table I were evaluated for their antitumor activity using as the criterion the growth inhibitory effect on MC-1 cell, a methylcholanthrene-induced syngenic tumor.
Eight week-old female C57BL/6 mice were subcutaneously transplanted in their dorsum area with 1×10^5 cells/animal of MC-1 cell. Five days after the transplantation, a group of seven mice with a successful transplantation were subcutaneously administered with either Compound No.1, 7 or 8 in Table I twice a week over a period of 25 days while monitoring the mice.
One another group of mice were light-irradiated with 100 W medical infrared lamp (100 V) placed about one meter in apart immediately after every administration of either Compound No.1, 7 or 8.
Control group was subcutaneously administered with 0.2 ml saline in accordance with the same administration schedule.
On the 27th day after the transplantation, the wet weight of tumor was determined by the method in Y. Shimosato and N. Tamaoki, Human Cancer and Nude mice, pp. 321-323, published by Ishiyaku Publishers Inc., Tokyo, Japan (1982), as well as monitoring the rate (%) of survivals on the 35th day.

Meth A ascitic tumor = assay: Synergistic effect by the combination with hyperthermia (growth inhibition of Meth A tumor); type: in vivo, BALB/c mice; settings: 20 ng/0.1 ml/animal s.c. twice a week; for Mean wet weight of tumor: 40th day; for Growth inhibitory rate for tumor (%): control = 100
Procedure: More particularly, 6 week-old BALB/c mice were subcutaneously transplanted in their femoral area with 2×10^5 cells/animal of Meth A cell. […] Immediately after every administration, the tumoral sites of the mice were soaked in about 42° C. water bath for about 60 minutes. On the 40th day after the transplantation, the mean wet weight of tumor was determined by the method in Experiment 2-2.
Separately, one of other groups was administered with either cyanine dye, and determined for its mean wet weight of tumor, while one another group was first administered with saline, then subjected to hyperthermia, followed by determining the mean wet weight of tumor.
Control group was subcutaneously injected with 0.1 ml saline in the femoral area.
The mean wet weights of tumor were put into the following equation to calculate the growth inhibitory rate for tumor (%) which was then used to evaluate any synergistic effect by the combination of cyanine dye and hyperthermia. [formula]

ddy mice = assay: Acute toxicity (LD50); type: in vivo; settings: 7 days
Procedure: as §1

[2] = ip, intraperitoneal administration
[3] = 0.5 ng/0.2 ml/animal s.c., combined with light-irradiation
[4] = 0.5 ng/0.2 ml/animal s.c., no light-irradiation
[5] = 5 ng/0.2 ml/animal s.c., combined with light-irradiation
[6] = 5 ng/0.2 ml/animal s.c., no light-irradiation
[7] = 50 ng/0.2 ml/animal s.c., combined with light-irradiation
[8] = 50 ng/0.2 ml/animal s.c., no light-irradiation
[9] = combined with hyperthermia (about 42° C., 60 minutes)
[10] = intraperitoneal administration, 10080 min

Structure (SMILES)	Growth inhibitory rate (%) (macrophage)	LD50 at 168 h (Acute toxicity (LD50); [2]) [mg/kg]	LD50 at 168 h (Acute toxicity (LD50); po, oral administration) [mg/kg]	Mean survival days ([1]; 0.5 ng/0.2 ml/animal) [days]	Increase in life-span (T/C %) ([1]; 0.5 ng/0.2 ml/animal) [%]	Survivals after 40 days ([1]; 0.5 ng/0.2 ml/animal)	Mean survival days ([1]; 5 ng/0.2 ml/animal) [days]	Increase in life-span (T/C %) ([1]; 5 ng/0.2 ml/animal) [%]	Survivals after 40 days ([1]; 5 ng/0.2 ml/animal)	Mean survival days ([1]; 50 ng/0.2 ml/animal) [days]	Increase in life-span (T/C %) ([1]; 50 ng/0.2 ml/animal) [%]	Survivals after 40 days ([1]; 50 ng/0.2 ml/animal)	Mean wet weight of tumor (MC-1 cell; [3]) [g]	Rate of survival (%) (MC-1 cell; [3])	Mean wet weight of tumor (MC-1 cell; [4]) [g]	Rate of survival (%) (MC-1 cell; [4])	Mean wet weight of tumor (MC-1 cell; [5]) [g]	Rate of survival (%) (MC-1 cell; [5])	LD50 (ddy mice; [10]) [mg/kg body weight]	LD50 (ddy mice; oral administration) [g/kg body weight]	other results
CCCCN1C=CC(=CC=C(C=Cc2cc[n+](CCCC)c3ccccc23)c2cc[n+](CCCC)c3ccccc23)c2ccccc21	37.6	84	≥ 4000	31.1 ± 4.2	105	0	42.9 ± 6.0	145	5	39.9 ± 5.4	135	4	3.3 ± 0.6	85.7	4.7 ± 1.0	71.4	1.9 ± 0.8	100			Mean wet weight of tumor (MC-1 cell; [6]): 3.5 ± 0.8 g; Rate of survival (%) (MC-1 cell; [6]): 100%; Mean wet weight of tumor (MC-1 cell; [7]): 2.6 ± 0.5 g; Rate of survival (%) (MC-1 cell; [7]): 100%; Mean wet weight of tumor (MC-1 cell; [8]): 4.0 ± 0.4 g; Rate of survival (%) (MC-1 cell; [8]): 85.7%; Mean wet weight of tumor (Meth A ascitic tumor; [9]): 0.62 ± 0.45 g; Growth inhibitory rate for tumor (%) (Meth A ascitic tumor; combined with hyperthermia): 12.6%; Mean wet weight of tumor (Meth A ascitic tumor; no hyperthermia): 3.35 ± 1.75 g; Growth inhibitory rate for tumor (%) (Meth A ascitic tumor; no hyperthermia): 68.2%
CCN1C=CC(=CC=C(C=Cc2cc[n+](CC)c3ccccc23)c2cc[n+](CC)c3ccccc23)c2ccccc21 [Compound No.1, [bis-4-(ethylquinoline)][γ-4'-(1-ethylquinoline)] pentamethine cyanine diiodide]	25.1	34	≥ 4000	36.1 ± 4.3	122	2	48.9 ± 4.2	165	7	45.6 ± 4.2	154	6	2.8 ± 0.3	100	4.1 ± 0.5	85.7	0.8 ± 0.1	100			Mean wet weight of tumor (MC-1 cell; [6]): 3.1 ± 0.4 g; Rate of survival (%) (MC-1 cell; [6]): 100%; Mean wet weight of tumor (MC-1 cell; [7]): 1.5 ± 0.3 g; Rate of survival (%) (MC-1 cell; [7]): 100%; Mean wet weight of tumor (MC-1 cell; [8]): 3.7 ± 0.2 g; Rate of survival (%) (MC-1 cell; [8]): 100%; Mean wet weight of tumor (Meth A ascitic tumor; [9]): 0.12 ± 0.15 g; Growth inhibitory rate for tumor (%) (Meth A ascitic tumor; combined with hyperthermia): 2.4%; Mean wet weight of tumor (Meth A ascitic tumor; no hyperthermia): 3.24 ± 1.45 g; Growth inhibitory rate for tumor (%) (Meth A ascitic tumor; no hyperthermia): 65.9%
CN1C(=CC=C(C=Cc2sc3ccccc3[n+]2C)c2sc3ccccc3[n+]2C)Sc2ccccc21 [Compound No.8]	27.3	40	≥ 4000	34.4 ± 5.7	116	1	49.3 ± 5.6	167	7	43.7 ± 4.0	148	6	2.9 ± 0.7	100	3.6 ± 0.4	71.4	0.5 ± 0.5	100			Mean wet weight of tumor (MC-1 cell; [6]): 2.9 ± 0.9 g; Rate of survival (%) (MC-1 cell; [6]): 100%; Mean wet weight of tumor (MC-1 cell; [7]): 1.2 ± 0.2 g; Rate of survival (%) (MC-1 cell; [7]): 100%; Mean wet weight of tumor (MC-1 cell; [8]): 3.5 ± 0.5 g; Rate of survival (%) (MC-1 cell; [8]): 85.7%; Mean wet weight of tumor (Meth A ascitic tumor; [9]): 0.90 ± 0.66 g; Growth inhibitory rate for tumor (%) (Meth A ascitic tumor; combined with hyperthermia): 18.3%; Mean wet weight of tumor (Meth A ascitic tumor; no hyperthermia): 3.40 ± 1.38 g; Growth inhibitory rate for tumor (%) (Meth A ascitic tumor; no hyperthermia): 69.2%
CCN1C=CC(=CC=C(C=Cc2cc[n+](CC)c3ccccc23)c2cc[n+](CC)c3ccccc23)c2ccccc21 [compound 2]	44.5																		30	≥ 4.0	
CCN1C=CC(=CC=C(C=Cc2cc[n+](CC)c3ccccc23)c2cc[n+](CC)c3ccccc23)c2ccccc21 [compound 3]	32.3																		31	≥ 4.0	
CCN1C=CC(=CC=C(C=Cc2cc[n+](CC)c3ccccc23)c2cc[n+](CC)c3ccccc23)c2ccccc21 [compound 4]	36.2																		37	≥ 4.0	
CCN1C=CC(=CC=C(C=Cc2cc[n+](CC)c3ccccc23)c2cc[n+](CC)c3ccccc23)c2ccccc21 [compound 5]	27.5																		28	≥ 4.0	
CN1C=CC(=CC=C(C=Cc2cc[n+](C)c3ccccc23)c2cc[n+](C)c3ccccc23)c2ccccc21 [compound 6]	41.8	65	≥ 4000																		

Source: patent US5491151A, “Antitumor treatment method” (Kabushiki Kaisha Hayashibara Seibutsu Kagaku Kenkyujo, priority 1989, dated 1996)
